Test results as given in the SangsterLogP compilation.
Non-standard residues stand in square brackets, D forms with d. Residues, ends and D or L forms follow the SMILES beside them. Sar = CNCC(=O)O

Legend:
[1] = method code SF-RC, from DOI: 10.1016/j.nucmedbio.2007.12.005, PMID: 18355688; details: pH 7.4
[2] = method code SF, from DOI: 10.4103/0250-474x.119813, PMID: 24302794; details: pH 7.4
[3] = method code SF, from DOI: 10.1021/bi00418a003, PMID: 3196678
[4] = method code SF, from Zhang, H, Oberg. B.; Liu, X.; Fan, Z.; Jia, J.; et, a. (2008). Octanol/water partition coefficient determination of novel fungicide SYP-3343 by flask-shaking method using HPLC. Journal of Safety and …; details: pH 5.0
[5] = method code SF-RC, from DOI: 10.1016/j.nucmedbio.2014.05.001, PMID: 24969632; details: pH 7.4
[6] = method code SF, from Huang, J.; Leng, X. (1993). Interaction of rat hepatocyte and cytochrome P 450 with pyrethroids in vitro. Dong Wu Xue Bao, 39(4)418-423.
[7] = method code SF-HPLC, from DOI: 10.1016/s0223-5234(98)80037-8; details: pH 7.4
[8] = method code SF-RC, from DOI: 10.1016/j.nucmedbio.2011.10.019, PMID: 22226022; details: pH 7.4
[9] = method code SF, from DOI: 10.1016/j.ejmech.2008.03.040, PMID: 18511157; details: pH 7.4
[10] = method code SF-AS, from DOI: 10.1248/cpb.26.2832
[11] = method code SF-RC, from PMID: 26778147
[12] = method code SF-RC, from DOI: 10.1016/j.nucmedbio.2006.10.003, PMID: 17210465; details: pH 7.4
[13] = not given; remark: listed apart in the source
[14] = not given; remark: listed apart in the source
[15] = pH 7.4
[16] = method code SF-RC, from DOI: 10.1016/0969-8051(94)00118-4, PMID: 7550031; details: pH 7.4
[17] = method code SF-RC, from DOI: 10.1016/0378-5173(86)90124-9
[18] = not given; remark: listed apart in the source
[19] = method code SF-HPLC, from DOI: 10.1002/jps.2600830407, PMID: 8046599; details: pH 7.0
[20] = not given; remark: listed apart in the source
[21] = method code SF, from DOI: 10.1016/j.bmcl.2013.12.011, PMID: 24342238
[22] = not given; remark: listed apart in the source
[23] = method code SF-HPLC, from DOI: 10.1002/jps.2600800905, PMID: 1800703; details: pH 7.0
[24] = method code SF, from DOI: 10.1002/cmdc.201000013, PMID: 20373323; details: pH 7.4
[25] = method code SF-AS, from PMID: 474167
[26] = method code RP-TLC, from DOI: 10.1016/s0021-9673(03)00617-4, PMID: 12830921
[27] = method code SF-AS, from DOI: 10.1016/0014-2999(72)90235-x, PMID: 4113999
[28] = method code SF, from PMID: 718082
[29] = not given; remark: listed apart in the source
[30] = method code SF-HPLC, from DOI: 10.1211/0022357001774101, PMID: 10813545
[31] = method code SF-AS, from PMID: 1586384
[32] = not given; remark: listed apart in the source
[33] = method code SF-AS, from PMID: 17296250; details: pH 7.2
[34] = method code SF, from DOI: 10.1016/j.ejpb.2011.02.007, PMID: 21329757
[35] = method code SF-AS, from PMID: 7460030; details: pH 7.3
[36] = method code SF-AS, from DOI: 10.1016/s0022-3565(25)38749-5, PMID: 8182532; details: pH 7.4
[37] = method code SF, from DOI: 10.1021/jm9910932, PMID: 10633041; details: pH 7.4
[38] = method code SF-HPLC, from DOI: 10.1248/cpb.39.1032
[39] = method code SF, from DOI: 10.1016/j.bmc.2011.10.022, PMID: 22100260; details: pH 7.4

CN(Cc1ccccc1)C(=O)Cc1c(-c2ccc(Cl)cc2)nc2c(Cl)cc(Cl)cn12
logD [1]: 2.67

CCc1cccc2c3c([nH]c12)C(CC)(CC(=O)N[C@@H](C=O)[C@@H](O)[C@H](O)[C@H](O)CO)OCC3 (stereo not given in full)
logD [2]: 1.35

C[C@]12CC[C@@H]3c4ccc(CCCO)cc4CC[C@H]3[C@@H]1CC[C@@H]2O
logP [3]: 2.7

CO/C=C(/C(=O)OC)c1ccccc1COc1cc(C)nn1-c1ccc(Cl)cc1
logD [4]: 4.37

O=C(OC(C(F)(F)F)C(F)(F)F)N1CCC(C(O)(c2ccc3c(c2)OCO3)c2ccc3c(c2)OCO3)CC1
logD [5]: 4.67

CC1(C)C(C(=O)OC(C#N)c2cccc(Oc3ccccc3)c2)C1(C)C (stereo not given)
logP [6]: 5.5

COc1ccc2cc(C(C)C(=O)OCN3C(=O)c4ccccc4C3=O)ccc2c1 (stereo not given)
logD [7]: 5.03

CCCCOc1c(OC)ccc2cc(C(=O)NCc3ccc(F)cc3)c(=O)[nH]c12
logD [8]: 4.4

COc1cc(N)c(Cl)cc1C(=O)NC1CC2CCCC(C1)N2Cc1ccc(F)cc1 (stereo not given)
logP: 2.56

N#Cc1c(C(=O)NC2CCCCC2)nn(-c2ccc(Cl)cc2Cl)c1-c1ccc(I)cc1
logD [9]: 3.9

CC(=O)[C@H]1CC[C@H]2[C@@H]3CCC4=CC(=O)CC[C@]4(C)[C@H]3C(O)C[C@]12C (stereo not given in full)
logP [10]: 2.36

O=C(Nc1ccc(F)cc1)c1ccc(N2CCN(C(=O)c3ccccc3C(F)(F)F)CC2)nn1
logP [11]: 2.08

CN(C)c1ccc(C=Cc2ccc(OCCOCCOCCF)cc2)cc1
logD [12]: 2.41

CC[C@H](C)[C@H](N)C(=O)N[C@@H](CC(C)C)C1(c2ccc(Cl)cc2)CCC1
logP [13]: 4.75

FCCCCC1OC2(CCN(Cc3ccccc3)CC2)c2ccccc21 (stereo not given)
logP [14]: 4.06

Cc1c(C(=O)Nc2ccc(F)cc2)nn(-c2ccc(Cl)cc2Cl)c1-c1ccc(Br)cc1
logD [15]: 4

COc1cc2c(cc1OC)C1CC(O)(C=CI)C(CC(C)C)CN1CC2 (stereo not given)
logD [16]: 3.24

CCCCC[C@H](O)/C=C/[C@@H]1[C@@H](C/C=C\CCCC(=O)OC)[C@@H](O)C[C@H]1O
logP [17]: 3.07

CC(C)c1nc(N(C)S(C)(=O)=O)nc(-c2ccc(F)cc2)c1/C=C\C(O)CC(O)CC(=O)O (stereo not given)
logP [18]: 2.4

Cc1cn(C2CC(N=[N+]=[N-])C(COC(=O)CNC(=O)C34CC5CC(CC(C5)C3)C4)O2)c(=O)[nH]c1=O (stereo not given)
logD [19]: 2.1

Cc1ccc(N2C(=O)C(=O)N(C(=O)COc3ccc4c(C)cc(=O)oc4c3C)C2=O)cc1
logP [20]: 0.84

COc1cc(C=CC(O)=CC(=O)C=Cc2ccc(O)c(N(C)C)c2)ccc1O
logP [21]: 3.65

O=C(OCC1C2CC3CCC1N3CC2=Cc1ccc(I)c(Cl)c1)c1ccccc1 (stereo not given)
logP [22]: 6.41

CC[C@H](C)C(=O)O[C@H]1C[C@H](O)C=C2C=C[C@H](C)[C@H](CC[C@@H]3C[C@@H](O)CC(=O)O3)[C@H]21
logD [23]: 2.45

O=C1NC(=O)C(c2ccc(Oc3ccccc3)cc2)(N2CCN(CCF)CC2)C(=O)N1
logD [24]: 2.15

CC(=O)[C@@]1(O)CC[C@H]2[C@@H]3CCC4=CC(=O)CC[C@]4(C)[C@H]3CC[C@@]21C
logP [25]: 3.19

CCOC(=O)C1=C[C@]2(CC)CCCN3CCc4c(n1c1ccccc41)[C@@H]32
logP [26]: 4.23

OCCN1CCN(CC/C=C2/c3ccccc3Sc3ccc(C(F)(F)F)cc32)CC1
logP [27]: 3.83

CC(=O)Nc1c(I)c(COC2C(O)C(O)OC(CO)C2O)c(I)c(COC2C(O)C(O)OC(CO)C2O)c1I (stereo not given)
logP [28]: -1.92

CCN(Cc1cccnc1)C(=O)CN(c1ccc(OC)nc1)S(=O)(=O)c1ccccc1C
logP [29]: 2.24

C[C@]12CC[C@H]3[C@@H](CCC4=CC(=O)CC[C@@]43C)[C@@H]1CC[C@@H]2OC(=O)CCC(=O)O
logP [30]: 3.55

CCOC(=O)OC(C)OC(=O)c1cn2c3c(c(N4CCN(C)CC4)c(F)cc3c1=O)OCC2C (stereo not given)
logP [31]: 0.44

CC(=O)O[C@]1(C(C)=O)CC[C@H]2[C@@H]3CCC4=CC(=O)CC[C@]4(C)[C@H]3CC[C@@]21C
logP [32]: 3.79

CC(C=CC1=C(C)CCC1(C)C)=CC=CC(C)=CC=NNC(N)=S
logD [33]: 1.05

C#C[C@]1(O)CC[C@H]2[C@@H]3CCC4=Cc5oncc5C[C@]4(C)[C@H]3CC[C@@]21C
logP [34]: 4.21

CCCCCCCOc1cccc(NC(=O)OC2CCCCC2n2ccnc2)c1 (stereo not given)
logD [35]: 5.64

O=S1(=O)c2cccc3cccc(c23)N1CCCN1CCN(c2ccc(F)cc2)CC1
logD [36]: 3.6

CC(=O)NCC(=O)N(C)CC(=O)NC(CC(C)C)C(=O)NC(Cc1ccccc1)C(N)=O (stereo not given) (Ac-G[Sar]LF-NH2; configuration not given here)
logD [37]: 1.64

C=C[C@@]1(C)CC(=O)[C@]2(O)[C@@]3(C)[C@@H](O)CCC(C)(C)[C@@H]3[C@H](O)[C@H](OC(C)=O)[C@@]2(C)O1
logP [38]: 3.12

CCN1CCN(S(=O)(=O)c2cnc(O)c(-c3nc4c5n(nc4c(=O)[nH]3)CCCC5CCOC)c2)CC1 (stereo not given)
logD [39]: 1.6
